Activity calls are given as the source filed them. No cut-off for these calls is given here.
Assays:
[1] = Cytotoxicity against human HL60 cells assessed as growth inhibition after 3 days; assay type: functional, cell-based; settings: HL-60, 72 h
[2] = biological target: T1, Nuclear factor NF-kappa-B complex (Homo sapiens) (UniProt Q00653+P19838+Q04206); experiment: Inhibition of NF-kappaB in human IM9 cells assessed as inhibition of nuclear translocation at 10 uM after 30 mins by NF-kappaB (p65) transcription factor assay; assay type: cell-based; settings: IM-9
[3] = biological target: T1, Nuclear factor NF-kappa-B complex (Homo sapiens); experiment: Inhibition of NF-kappaB in human IM9 cells assessed as inhibition of nuclear translocation at 1 uM after 30 mins by NF-kappaB (p65) transcription factor assay; assay type: cell-based; settings: IM-9
[4] = Cytotoxicity against human IM9 cells assessed as growth inhibition after 3 days; assay type: functional, cell-based; settings: IM-9, 72 h
HL-60 = experiment: Cytotoxicity against human HL60 cells assessed as growth inhibition at 10 uM after 3 days; assay type: functional, cell-based
IM-9 = experiment: Cytotoxicity against human IM9 cells assessed as growth inhibition at 10 uM after 3 days; assay type: functional, cell-based

T1 sequence (P19838 whole entry, looked up): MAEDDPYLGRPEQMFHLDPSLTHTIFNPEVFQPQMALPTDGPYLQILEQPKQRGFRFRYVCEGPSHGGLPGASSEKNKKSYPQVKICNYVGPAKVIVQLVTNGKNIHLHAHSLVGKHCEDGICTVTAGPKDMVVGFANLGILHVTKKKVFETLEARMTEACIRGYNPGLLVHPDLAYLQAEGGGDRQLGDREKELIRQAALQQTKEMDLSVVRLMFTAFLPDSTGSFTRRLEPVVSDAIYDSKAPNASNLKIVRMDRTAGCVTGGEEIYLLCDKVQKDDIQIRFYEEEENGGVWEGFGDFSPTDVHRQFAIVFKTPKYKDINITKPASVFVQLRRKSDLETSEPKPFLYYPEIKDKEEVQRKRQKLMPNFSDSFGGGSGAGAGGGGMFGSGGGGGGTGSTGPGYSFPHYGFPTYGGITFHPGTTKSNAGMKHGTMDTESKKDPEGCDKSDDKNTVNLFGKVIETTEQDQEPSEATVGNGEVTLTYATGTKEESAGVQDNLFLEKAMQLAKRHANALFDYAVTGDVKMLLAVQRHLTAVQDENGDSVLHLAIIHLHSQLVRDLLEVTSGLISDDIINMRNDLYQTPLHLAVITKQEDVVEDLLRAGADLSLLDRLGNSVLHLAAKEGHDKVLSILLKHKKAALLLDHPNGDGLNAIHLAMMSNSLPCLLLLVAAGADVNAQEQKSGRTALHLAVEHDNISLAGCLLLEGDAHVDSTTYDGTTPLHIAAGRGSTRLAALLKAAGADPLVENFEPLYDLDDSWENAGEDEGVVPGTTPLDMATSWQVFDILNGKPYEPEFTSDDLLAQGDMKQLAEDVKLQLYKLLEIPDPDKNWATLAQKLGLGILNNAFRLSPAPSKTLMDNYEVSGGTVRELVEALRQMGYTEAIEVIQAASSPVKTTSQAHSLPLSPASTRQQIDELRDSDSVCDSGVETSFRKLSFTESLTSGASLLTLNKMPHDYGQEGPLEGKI
T1 sequence (Q00653 whole entry, looked up): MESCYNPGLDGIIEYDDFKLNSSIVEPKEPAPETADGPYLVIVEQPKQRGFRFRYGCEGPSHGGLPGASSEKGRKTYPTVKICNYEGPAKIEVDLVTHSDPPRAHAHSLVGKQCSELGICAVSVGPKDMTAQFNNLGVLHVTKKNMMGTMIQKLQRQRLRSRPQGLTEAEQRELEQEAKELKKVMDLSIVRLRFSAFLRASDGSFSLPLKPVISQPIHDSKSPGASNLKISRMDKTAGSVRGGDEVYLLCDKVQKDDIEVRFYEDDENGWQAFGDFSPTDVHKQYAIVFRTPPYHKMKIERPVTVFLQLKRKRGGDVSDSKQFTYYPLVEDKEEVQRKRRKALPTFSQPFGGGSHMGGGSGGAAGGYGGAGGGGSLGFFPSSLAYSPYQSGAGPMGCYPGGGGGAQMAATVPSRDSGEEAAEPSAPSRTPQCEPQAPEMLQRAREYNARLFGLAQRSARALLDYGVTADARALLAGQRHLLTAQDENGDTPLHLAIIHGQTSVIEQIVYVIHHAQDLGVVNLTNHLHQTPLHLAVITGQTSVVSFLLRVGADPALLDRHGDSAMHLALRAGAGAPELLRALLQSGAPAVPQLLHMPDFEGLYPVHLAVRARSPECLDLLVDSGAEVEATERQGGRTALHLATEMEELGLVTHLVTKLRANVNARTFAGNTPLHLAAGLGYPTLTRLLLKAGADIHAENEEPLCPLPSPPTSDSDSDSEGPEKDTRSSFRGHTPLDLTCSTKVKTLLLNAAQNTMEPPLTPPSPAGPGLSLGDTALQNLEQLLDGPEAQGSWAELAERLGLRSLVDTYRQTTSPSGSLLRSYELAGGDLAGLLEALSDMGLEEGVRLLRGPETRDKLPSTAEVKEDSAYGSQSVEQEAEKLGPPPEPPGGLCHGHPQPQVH
T1 sequence (Q04206 whole entry, looked up): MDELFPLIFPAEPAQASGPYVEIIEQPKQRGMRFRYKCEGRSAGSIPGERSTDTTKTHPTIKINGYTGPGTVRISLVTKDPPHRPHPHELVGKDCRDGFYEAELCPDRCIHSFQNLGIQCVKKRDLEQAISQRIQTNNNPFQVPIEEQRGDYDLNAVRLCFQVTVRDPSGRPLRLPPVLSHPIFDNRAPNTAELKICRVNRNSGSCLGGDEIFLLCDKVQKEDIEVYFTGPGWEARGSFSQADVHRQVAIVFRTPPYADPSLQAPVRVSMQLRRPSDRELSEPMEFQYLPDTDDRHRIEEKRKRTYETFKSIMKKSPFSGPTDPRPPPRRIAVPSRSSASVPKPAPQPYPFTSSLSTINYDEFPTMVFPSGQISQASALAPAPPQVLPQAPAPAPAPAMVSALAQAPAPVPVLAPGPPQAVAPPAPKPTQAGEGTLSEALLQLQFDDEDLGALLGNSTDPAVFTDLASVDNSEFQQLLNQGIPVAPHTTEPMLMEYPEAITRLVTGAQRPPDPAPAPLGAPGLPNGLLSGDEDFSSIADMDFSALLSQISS

| SMILES | IC50 [1] [nM] | inhibition [2] | IC50 [4] [nM] | further results |
| --- | --- | --- | --- | --- |
| CC(=O)Oc1ccc(C(OC(C)=O)c2ccc3ccccc3c2)cc1 (stereo not given) | 2200 |  |  |  |
| CC(=O)Oc1ccc(C(OC(C)=O)c2cccc3ccccc23)cc1 (stereo not given) | 290 |  |  |  |
| CC(=O)Oc1ccc2c(c1)CCc1ccccc1C2OC(C)=O (stereo not given) | 2800 |  |  |  |
| C=C[C@H](OC(C)=O)c1ccc(OC(C)=O)cc1 [1'-ACETOXYCHAVICOL ACETATE] | 2000 | 70% | 2100 | inhibition [3]: 0% |
| CC(=O)Nc1ccc(C(OC(C)=O)c2ccccc2)cc1 (stereo not given) |  |  |  | inhibition (HL-60): inactive |
| CC(=O)Oc1ccc2c(c1)-c1ccccc1C2OC(C)=O (stereo not given) | > 10000 | inactive |  | inhibition (IM-9): inactive |
| CC(=O)Oc1ccc(C(OC(C)=O)c2cc(-c3ccccc3)cc(-c3ccccc3)c2)cc1 (stereo not given) | 1100 |  |  |  |
| CC(=O)Oc1ccc(C(OC(C)=O)c2ccccc2)cc1 (stereo not given) | 3500 | 61% | 2500 |  |
| CC(=O)Oc1ccc(C(OC(C)=O)c2c3ccccc3cc3ccccc23)cc1 (stereo not given) | 120 | 85% | 230 | inhibition [3]: 32% |
| CC(=O)NC(c1ccccc1)c1ccc(OC(C)=O)cc1 (stereo not given) |  |  |  | inhibition (HL-60): inactive |

Source: ChEMBL document CHEMBL3399935, “Structure-activity relationships of benzhydrol derivatives based on 1'-acetoxychavicol acetate (ACA) and their inhibitory activities on multiple myeloma cell growth via inactivation of the NF-κB pathway” (Bioorg Med Chem, 2015)
